# Molecular target: T1, human EGF-receptor kinase (Homo sapiens, UniProt P00533)
# T1 construct: GST; made in house; host or cells: Sf9 insect cells (Baculovirus expression system)
# Assay: Inhibition of human EGF-receptor kinase (ELISA, pEY substrate)
# Assay type: biochemical
# Conditions: cytoplasmic tyrosine kinase domain (Met664-Ala1186) as GST fusion protein; poly(EY)/bio-pEY substrate; 30 minutes at ambient temperature
# Method: The inhibition of human EGF-receptor kinase was determined using the cytoplasmic tyrosine kinase domain (methionine 664 to alanine 1186 based on the sequence published in Nature 309 (1984), 418). For this the protein was expressed in Sf9 insect cells as GST fusion protein using the Baculovirus expression system.
# The enzyme activity was measured in the presence or absence of the test compounds in serial dilutions. The polymer pEY (4:1) obtained from SIGMA was used as the substrate. Biotinylated pEY (bio-pEY) was added as the tracer substrate. 100 μl of reaction solution contained 10 μl of the inhibitor in 50% DMSO, 20 μl of the substrate solution (200 mM HEPES pH 7.4, 50 mM magnesium acetate, 2.5 mg/ml poly(EY), 5 μg/ml bio-pEY) and 20 μl of enzyme preparation. The enzyme reaction was started by the addition of 50 μl of a 100 μM ATP solution in 10 mM of magnesium chloride. The dilution of the enzyme preparation was adjusted so that the incorporation of phosphate in the bio-pEY was linear in terms of time and quantity of enzyme. The enzyme preparation was diluted in 20 mM HEPES pH 7.4, 1 mM EDTA, 130 mM common salt, 0.05% Triton X-100, 1 mM DTT and 10% glycerol.
# The enzyme assays were carried out at ambient temperature over a period of 30 minutes and ended by the addition of 50 μl of a stopping solution (250 mM EDTA in 20 mM HEPES pH 7.4). 100 μl were placed on a streptavidin-coated microtitre plate and incubated for 60 minutes at ambient temperature. Then the plate was washed with 200 μl of a wash solution (50 mM Tris, 0.05% Tween 20). After the addition of 100 μl of an HRPO-labelled anti-PY antibody (PY20H Anti-PTyr:HRP made by Transduction Laboratories, 250 ng/ml) the preparation was incubated for 60 minutes. Then the microtitre plate was washed three times with 200 μl of wash solution. The samples were then combined with 100 μl of a TMB-peroxidase solution (A:B=1:1, Kirkegaard Perry Laboratories). After 10 minutes the reaction was stopped. The extinction was measured at OD450nm with an ELISA reader. All the results were measured three times. […]
# T1 sequence (P00533 688-1210): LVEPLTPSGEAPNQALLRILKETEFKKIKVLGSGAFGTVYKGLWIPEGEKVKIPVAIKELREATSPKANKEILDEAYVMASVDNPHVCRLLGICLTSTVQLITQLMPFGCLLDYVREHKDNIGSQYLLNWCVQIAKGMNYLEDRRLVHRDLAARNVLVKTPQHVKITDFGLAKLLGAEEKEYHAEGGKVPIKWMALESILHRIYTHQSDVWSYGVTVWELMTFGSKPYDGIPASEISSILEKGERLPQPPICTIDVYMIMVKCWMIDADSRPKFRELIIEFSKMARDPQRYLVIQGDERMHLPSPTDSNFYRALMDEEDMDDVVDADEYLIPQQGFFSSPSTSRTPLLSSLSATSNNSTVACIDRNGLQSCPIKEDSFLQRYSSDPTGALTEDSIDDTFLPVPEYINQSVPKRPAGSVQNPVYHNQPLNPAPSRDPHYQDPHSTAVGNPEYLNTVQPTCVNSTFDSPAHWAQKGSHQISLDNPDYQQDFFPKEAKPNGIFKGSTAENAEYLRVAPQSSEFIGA
row,IC50,SMILES
1,2 nM,"O=C(/C=C/CN1CC2CCC(C1)O2)Nc1cc2c(Nc3ccc(F)c(Cl)c3)ncnc2cc1O[C@H]1CCOC1 [Example 2(3), 4-[(3-chloro-4-fluoro-phenyl)amino]-6-{[4-(8-oxa-3-aza-bicyclo[3.2.1]oct-3-yl)-1-oxo-2-buten-1-yl]amino}-7-[(S)-(tetrahydrofuran-3-yl)oxy]-quinazoline]"
2,0.5 nM,"O=C(/C=C/CN1C[C@H]2C[C@@H]1CO2)Nc1cc2c(Nc3ccc(F)c(Cl)c3)ncnc2cc1O[C@H]1CCOC1 [Example 2(2), 4-[(3-chloro-4-fluoro-phenyl)amino]-6-{[4-((1R,4R)-2-oxa-5-aza-bicyclo[2.2.1]hept-5-yl)-1-oxo-2-buten-1-yl]amino}-7-[(S)-(tetrahydrofuran-3-yl)oxy]-quinazoline]"
3,1.5 nM,"O=C(/C=C/CN1C[C@@H]2C[C@H]1CO2)Nc1cc2c(Nc3ccc(F)c(Cl)c3)ncnc2cc1OCC1CC1 [Example 1, 4-[(3-chloro-4-fluoro-phenyl)amino]-6-{[4-((1S,4S)-2-oxa-5-aza-bicyclo[2.2.1]hept-5-yl)-1-oxo-2-buten-1-yl]amino}-7-cyclopropylmethoxy-quinazoline]"

# Source: patent US7863281B2, “Bicyclic heterocycles, pharmaceutical compositions containing these compounds, their use and processes for the preparation thereof” (Boehringer Ingelheim Pharma GmbH & Co. KG, priority 2002, dated 2011)
